Assays:
Format in all cases: functional
[1] = species: Bos taurus; assay: Carboxymethylation of bovine brain tubulin pre-incubated with 8.6 mol compound per mol tubulin
[2] = species: Bos taurus; assay: Carboxymethylation of bovine brain tubulin pre-incubated with 86 mol compound per mol tubulin
[3] = species: Bos taurus; assay: Carboxymethylation of bovine brain tubulin pre-incubated with 69 mol compound per mol tubulin
[4] = species: Bos taurus; assay: Carboxymethylation of bovine brain tubulin pre-incubated with 34 mol compound per mol tubulin
[5] = species: Bos taurus; assay: Carboxymethylation of bovine brain tubulin pre-incubated with 0 mol compound per mol tubulin
[6] = species: Bos taurus; assay: Carboxymethylation of bovine brain tubulin pre-incubated with 17 mol compound per mol tubulin

**Q.** `CC1=CC(=O)C(=O)C2=C1O[C@@]1(C2)[C@@H](C)CC[C@@H]2[C@@]3(C)CC[C@H](O)C(C)(C)C3CC[C@]21C` (stereo partly specified) [STYPOLDIONE] was tested. Which “Ratio_[3H]:tubulin” value [1] did it give?
**A.** 22

**Q.** And the “Ratio_[3H]:tubulin” value [2]?
**A.** 4.3

**Q.** And the “Ratio_[3H]:tubulin” value [3]?
**A.** 4.8

**Q.** And the “Ratio_[3H]:tubulin” value [4]?
**A.** 12

**Q.** And the “Ratio_[3H]:tubulin” value [5]?
**A.** 20

**Q.** What about the “Ratio_[3H]:tubulin” value [6] of the same compound?
**A.** 16

Source: ChEMBL document CHEMBL1123224, “Mechanism of action of the marine natural product stypoldione: evidence for reaction with sulfhydryl groups” (1986)
